Test results as given in patent publication US20090306612A1, “ABSORBENT ARTICLE” (SCA HYGIENE PRODUCTS AB, priority 2006, published 2009).

Tests used:
Format in all cases: cell-based
Proteus mirabilis = assay: Ammonia formation in absorbent cores (method 3); settings: Example 2, FIG. 5; specimen containing 29% by weight of NaCl; after 6 and 8 hours
Protocol: Absorbent test specimens were produced according to method 1. A bacterial suspension of Proteus mirabilis was cultured in nutrient solution at 30° C. overnight. The grafted cultures were diluted with test liquid 1 and the quantity of bacteria was determined. The final culture contained approximately 10^5 organisms per ml of test liquid. The absorbent core was placed in a plastic tub and test liquid 1 containing bacteria was added to the absorbent core, after which the container was incubated at 35° C. for 4, 6 and 8 hours, and then the specimens were removed from the container using a hand pump and a so-called Drager tube. The ammonia content was obtained as a color change on a scale graduated in ppm or percent by volume.
Absorbent test specimens were produced according to method 1. 16 ml, maximum absorption capacity, of test liquid 1 containing bacteria were added to a test specimen. 29 (high), 22 (medium) and 12 (low) % by weight of NaCl (% dry) and 22 (medium) % by weight of CaCl2 (% dry) were added to the core. The quantity of developed ammonia was measured according to method 3 after 6 and 8 hours. […]
Absorbent test specimens were produced according to method 1. […] The quantity of added pH-reducing substance was 5% by weight of the pulp. […] The quantity of developed ammonia was measured according to method 3 after 6 and 8 hours.

E. coli = assay: Bacterial growth in absorbent cores (method 4), E. coli
Protocol: (§1) 16 ml (corresponding to a maximum absorption capacity of a test specimen according to method 1) of test liquid 1 containing the bacteria were added to a test specimen placed in plastic tubs, and a lid was fitted on the tubs. The tubs were turned upside down and incubated in a warm cabinet at 35° C. After incubation for 0, 6 and 12 hours, the test samples were placed in a plastic bag with peptone water and the content was homogenized (agitated and worked up) in a stomacker for 3 minutes. The homogenate was diluted in dilution tubes with peptone water and a microbiological culture was spread on agar plates. Slanetz Bartley agar was used for E. faecalis, and Drigalski agar for E. coli and P. mirabilis. The specimens were incubated at 35° C. for 1-2 days before the colonies were counted and the log CFU/ml calculated. Control tests were also carried out with absorbent cores without NaCl.
(§2) Bacteria were cultured in nutrient broth and diluted to the desired concentration of about Log 3.3 in test liquid 1 (method 4). Absorbent test specimens were produced according to method 1. […] The bacterial growth was measured according to method 4.
(§3) Absorbent cores were produced according to method 1. […] The bacterial growth of E. coli, P. mirabilis and E. faecalis was measured after 0, 6 and 12 hours according to method 4. […]

E. faecalis = assay: Bacterial growth in absorbent cores (method 4), E. faecalis
Protocol: as §1, §2, §3

P. mirabilis = assay: Bacterial growth in absorbent cores (method 4), P. mirabilis
Protocol: as §1, §2, §3

[1] = 3% added salt (% wet) = 29% by weight (% dry), NaCl high in FIG. 4, 12 hours, 35° C., 16 ml test liquid 1 (maximum load), start about Log 3.3, method counts log CFU/ml
[2] = Example 1, FIG. 4, 29, 22 and 12% by weight NaCl (% dry), after 6 and 12 hours, inhibition better with higher salt content

[Cl-].[Na+] [NaCl]
development of NH3, ranking among the specimens (Proteus mirabilis): lowest development of NH3 | growth of E. coli after 12 hours (E. coli; [1]): < 5.5 log | growth of E. coli compared with the control tests (E. coli; [2]): lower | growth of E. faecalis after 12 hours (E. faecalis; [1]): < 5.5 log | growth of E. faecalis compared with the control tests (E. faecalis; [2]): lower | growth of P. mirabilis after 12 hours (P. mirabilis; [1]): < 5.5 log | growth of P. mirabilis compared with the control tests (P. mirabilis; [2]): lower
